# Measured values as given in patent publication US4231923A, “Assay method and compounds” (Burroughs Wellcome Co., priority 1977, dated 1980).
# Target: Opiate receptor
# Experiment: Opiate receptor binding (IC50) by the method of Pasternak et al. using tritiated naloxone, absence of sodium ions
# Conditions: method indicated in Example 1 (tritiated naloxone, absence of sodium ions, 4° C., pH 7.4); Table 2
# Procedure: *Method of Pasternak, G. W. et al., Molecular Pharmacology, 11, 340-351
# (1975) using tritiated naloxone and in the absence of sodium ions; assays
# trishydrochloric acid buffer (50 mM, pH 7.4).
# (§1) The opiate receptor IC50 (M) was ascertained by the method indicated in Example 1.
# as §1
substance,measurement,value
H.Try.Gly.Gly.Phe.D-Met.OMe HCl [(Y)],IC50,60 nM
